Measurements from ChEMBL document CHEMBL1201862, “PubChem BioAssay data set” (2004).
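Dose response: 5 concentrations. Exposure: 48 h. Format: 96-well plates. Endpoint: linear interpolation; highest concentration if not reached. GI50 is the concentration that inhibits growth by half.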 Activity calls are given as the source filed them. Rule as the data show it: active = GI50 up to about 1.1 µM and inactive = higher.

Assays:
Assay in all cases: NCI tumour cell line growth inhibition, 48 h
HCC 2998 = test system: HCC 2998
IGROV-1 = test system: IGROV-1
TK-10 = test system: TK-10
HT-29 = test system: HT-29
SR = test system: SR
M14 = test system: M14
OVCAR-8 = test system: OVCAR-8
NCI-H460 = test system: NCI-H460
A549 = test system: A549
SK-MEL-2 = test system: SK-MEL-2
MOLT-4 = test system: MOLT-4
UACC-62 = test system: UACC-62
NCI-H226 = test system: NCI-H226
UO-31 = test system: UO-31
SNB-19 = test system: SNB-19
OVCAR-3 = test system: OVCAR-3
SF-268 = test system: SF-268
KM12 = test system: KM12

Measured: GI50

N#CCCN(c1ccc(/C=N/c2ccc(C(=O)O)cc2)cc1)S(=O)(=O)c1ccccc1
inactive: HCC 2998 > 100 µM | IGROV-1 > 100 µM | TK-10 > 100 µM | HT-29 > 100 µM | SR > 100 µM | M14 > 100 µM | OVCAR-8 > 100 µM | NCI-H460 > 100 µM | A549 > 100 µM | SK-MEL-2 > 100 µM | MOLT-4 > 100 µM | UACC-62 > 100 µM | NCI-H226 > 100 µM | UO-31 > 100 µM | SNB-19 > 100 µM | OVCAR-3 > 100 µM | SF-268 > 100 µM | KM12 > 100 µM

CCCCCCCCCCCCCC(=O)OCC(C[As](=O)(O)O)OC(=O)CCCCCCCCCCCCC (stereo not drawn)
inactive: HCC 2998 > 100 µM | IGROV-1 > 100 µM | TK-10 > 100 µM | HT-29 > 100 µM | SR > 100 µM | M14 > 100 µM | OVCAR-8 > 100 µM | NCI-H460 > 100 µM | A549 > 100 µM | SK-MEL-2 > 100 µM | MOLT-4 > 100 µM | UACC-62 > 100 µM | NCI-H226 > 100 µM | UO-31 > 100 µM | SNB-19 > 100 µM | OVCAR-3 > 100 µM | SF-268 > 100 µM | KM12 > 100 µM

Cc1c(Cl)ccc2c1NC(=O)C2(O)C(C(=O)c1ccccc1)c1ccccc1 (stereo not drawn)
inactive: HCC 2998 97.9 µM | IGROV-1 > 100 µM | TK-10 52 µM | HT-29 29.9 µM | SR 27.3 µM | M14 > 100 µM | OVCAR-8 69.7 µM | NCI-H460 64.9 µM | A549 98.2 µM | SK-MEL-2 > 100 µM | MOLT-4 22.9 µM | UACC-62 19.5 µM | NCI-H226 88.5 µM | UO-31 76.6 µM | SNB-19 62.8 µM | OVCAR-3 > 10 µM | SF-268 62.7 µM | KM12 55.3 µM

C#C[C@@H](CCCC)OC(=O)N[C@H](C)c1ccccc1
inactive: HCC 2998 1.96 µM | IGROV-1 23 µM | TK-10 29.2 µM | HT-29 40.3 µM | SR 21.3 µM | M14 11.5 µM | OVCAR-8 13.7 µM | NCI-H460 56.6 µM | A549 6.82 µM | SK-MEL-2 23.4 µM | MOLT-4 27.3 µM | UACC-62 4.98 µM | NCI-H226 22.5 µM | UO-31 19 µM | SNB-19 93.3 µM | OVCAR-3 35.4 µM | SF-268 2.17 µM | KM12 39.7 µM

Cc1ccc(NC(=O)C(=O)Cc2cccc[n+]2[O-])cc1C
inactive: HCC 2998 > 100 µM | IGROV-1 > 100 µM | TK-10 > 100 µM | HT-29 > 100 µM | SR > 100 µM | M14 > 100 µM | OVCAR-8 > 100 µM | NCI-H460 > 100 µM | A549 > 100 µM | SK-MEL-2 > 100 µM | MOLT-4 > 100 µM | UACC-62 > 100 µM | NCI-H226 > 100 µM | UO-31 > 100 µM | SNB-19 > 100 µM | OVCAR-3 > 100 µM | SF-268 > 100 µM | KM12 > 100 µM

N#CCC(=O)Nc1cccc(C(F)(F)F)c1
inactive: HCC 2998 > 100 µM | IGROV-1 > 100 µM | TK-10 > 100 µM | HT-29 > 100 µM | SR > 100 µM | M14 > 100 µM | OVCAR-8 > 100 µM | NCI-H460 > 100 µM | A549 > 100 µM | SK-MEL-2 > 100 µM | MOLT-4 > 100 µM | UACC-62 > 100 µM | NCI-H226 > 100 µM | UO-31 > 100 µM | SNB-19 > 100 µM | OVCAR-3 84.3 µM | SF-268 > 100 µM | KM12 > 100 µM
